Data from PubChem BioAssay (NCI).
Values joined by “and” are separate entries in the source; they are usually repeats but may differ in a detail not shown here. Identical values can stand only once.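 A five-concentration, 48-hour dose response in 96-well plates underlies each endpoint, interpolated linearly between surrounding concentrations. GI50 = concentration required for 50% inhibition of growth. TGI is the concentration that stops growth completely.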

What was measured:
Test in all cases: NCI anticancer screen, dose series, 48 h
SK-MEL-5 melanoma = tested on: SK-MEL-5 melanoma
MALME-3M melanoma = tested on: MALME-3M melanoma
HS 578T breast = tested on: HS 578T breast
SF-539 CNS = tested on: SF-539 CNS
ACHN renal = tested on: ACHN renal
MOLT-4 leukemia = tested on: MOLT-4 leukemia
786-0 renal = tested on: 786-0 renal
OVCAR-4 ovarian = tested on: OVCAR-4 ovarian
HT29 colon = tested on: HT29 colon
NCI-H23 lung = tested on: NCI-H23 lung

| Compound | TGI (SK-MEL-5 melanoma) | TGI (MALME-3M melanoma) | GI50 (HS 578T breast) | TGI (HS 578T breast) | TGI (SF-539 CNS) | GI50 (ACHN renal) | TGI (ACHN renal) | TGI (MOLT-4 leukemia) | GI50 (786-0 renal) | TGI (OVCAR-4 ovarian) | TGI (HT29 colon) | TGI (786-0 renal) | GI50 (SK-MEL-5 melanoma) | GI50 (MALME-3M melanoma) | GI50 (HT29 colon) | GI50 (SF-539 CNS) | GI50 (NCI-H23 lung) | TGI (NCI-H23 lung) | GI50 (MOLT-4 leukemia) | GI50 (OVCAR-4 ovarian) |
| --- | --- | --- | --- | --- | --- | --- | --- | --- | --- | --- | --- | --- | --- | --- | --- | --- | --- | --- | --- | --- |
| CC1OC(O[C@@H]2C=C3CC[C@@H]4[C@H](CC[C@]5(C)[C@@H](c6ccc(=O)oc6)CC[C@]45O)[C@@]3(C)CC2)C(O)C(O)C1O (some centres not stated) | 0.003 µM and 0.0122 µM | 0.00238 µM and 0.00139 µM | 0.00326 µM | 0.003 µM | 0.000193 µM | 0.00478 µM | 0.003 µM and 0.000431 µM | 0.00127 µM | 0.0706 nM | 0.00224 µM and 0.00365 µM | – | – | – | – | – | – | – | – | – | – |
| COc1cc([C@@H]2c3cc4c(cc3[C@@H](OC3OC5COC(C)OC5C(O)C3O)[C@H]3COC(=O)[C@H]23)OCO4)cc(OC)c1O (some centres not stated) | 47.2 µM and 10.8 µM and 32.5 µM | 72 µM [middle of 4 runs] | 2.86 µM and 5.72 µM | – | – | – | – | – | – | 124 µM and 500 µM and 292 µM | 79.8 µM and 500 µM and 125 µM | 43.3 µM and 28.1 µM and 9.35 µM | – | – | – | – | – | – | – | – |
| Cc1ccc2nc(CN(CCN(Cc3nc4ccc(C)cc4[nH]3)Cc3nc4ccc(C)cc4[nH]3)Cc3nc4ccc(C)cc4[nH]3)[nH]c2c1 | 3.06 µM | 2.89 µM | – | – | 3.16 µM | 1.6 µM | 2.94 µM | – | 1750 nM | – | 3.2 µM | 3.15 µM | 1.69 µM | 1.47 µM | 1.77 µM | 1.77 µM | – | – | – | – |
| COc1ccc(/C=C\c2cc(OC)c(OC)c(OC)c2)cc1NC(=O)/C=C/c1cc(OC)c(OC)c(OC)c1 | 6.73 µM | – | 5.94 µM | > 100 µM | > 100 µM | 6.76 µM | > 100 µM | > 100 µM | 5430 nM | > 100 µM | > 100 µM | > 100 µM | 2.21 µM | – | 3.55 µM | 3.95 µM | 6.96 µM | > 100 µM | 8.52 µM | 6.77 µM |
| CN(C(=O)C12C3C4C1C1C2C3C41C#N)C(C)(C)C (configuration not stated) | > 100 µM | > 100 µM | – | – | > 100 µM | – | > 100 µM | > 100 µM | – | > 100 µM | > 100 µM | > 100 µM | – | – | – | – | – | > 100 µM | – | – |
| CN(C)NC(=O)NC12CC3CC(CC(C3)C1)C2 | > 100 µM | – | – | – | > 100 µM | – | > 100 µM | > 100 µM | – | > 100 µM | > 100 µM | > 100 µM | – | – | – | – | – | > 100 µM | – | – |
| CSCSCC(CO)NC(=O)/C=C/c1c(C)[nH]c(=O)[nH]c1=O (configuration not stated) | > 100 µM | > 100 µM | – | – | > 100 µM | – | > 100 µM | > 100 µM | – | > 100 µM | > 100 µM | > 100 µM | – | – | – | – | – | > 100 µM | – | – |
| CCOC(=O)C(=O)CC(=O)C(Br)C(Br)c1ccc(Cl)cc1 (configuration not stated) | > 100 µM | > 100 µM | – | – | – | – | > 100 µM | 53 µM | – | > 100 µM | 34.7 µM | 34 µM | – | – | – | – | – | 96.1 µM | – | – |
| Cc1nc2ccccc2c(=O)n1/N=C(\N=Nc1cc(Cl)ccc1Cl)c1ccc(N(C)C)cc1 | > 100 µM | – | – | – | > 100 µM | – | > 100 µM | > 100 µM | – | – | > 100 µM | > 100 µM | – | – | – | – | – | > 100 µM | – | – |
| C=C(CN1CCN(c2cc(C(F)(F)F)cc(C(F)(F)F)c2)CC1)c1ccc(C(=O)Nc2ccccc2N)cc1 | 10.8 µM | 47.9 µM | 4.81 µM | 35.6 µM | > 100 µM | 5.81 µM | > 100 µM | – | 6770 nM | 9.9 µM | 4.75 µM | 86.5 µM | 2.28 µM | 13.8 µM | 1.91 µM | 18 µM | 14.2 µM | 72.1 µM | – | 2.53 µM |
| CCNC(=O)O/N=C1\CCC2[C@@H]3CC=C4C[C@@H](OC(=O)NCC)CC[C@]4(C)C3CC[C@]12C (some centres not stated) | 10.4 µM | 1.51 µM | – | – | > 100 µM | – | 4.96 µM | 3.2 µM | – | 5.19 µM | 13 µM | 12.8 µM | – | – | – | – | – | 11.7 µM | – | – |
| C(=C\c1ccc2ccccc2c1Nc1ccccc1)/c1ccccc1 | > 100 µM | > 78.8 µM | – | – | > 100 µM | – | > 63.9 µM | 36.9 µM | – | 23.2 µM | > 100 µM | 33.9 µM | – | – | – | – | – | > 87.6 µM | – | – |
| CCn1c(=O)nc2n(-c3ccc(SC)cc3)c3ccccc3nc-2c1=O | > 100 µM | > 100 µM | – | – | > 100 µM | – | > 100 µM | > 100 µM | – | > 100 µM | – | > 100 µM | – | – | – | – | – | > 100 µM | – | – |
| O=C(CC1(O)C(=O)Nc2ccccc21)c1cccc(O)c1 (configuration not stated) | > 100 µM | > 100 µM | – | – | > 100 µM | – | > 100 µM | > 100 µM | – | > 100 µM | > 100 µM | > 100 µM | – | – | – | – | – | > 100 µM | – | – |
| CC(=O)O[C@H]1CSC[C@@H](OC(C)=O)C1[N+](=O)[O-] (some centres not stated) | > 100 µM | 41.6 µM | – | – | > 100 µM | – | > 100 µM | 78.7 µM | – | > 100 µM | > 100 µM | 36.5 µM | – | – | – | – | – | > 100 µM | – | – |
| COc1cc(O)c(C(=O)C2Cc3ccccc32)c(OC)c1 (configuration not stated) | > 100 µM | > 100 µM | – | – | > 100 µM | – | > 100 µM | 45.8 µM | – | > 100 µM | > 100 µM | > 100 µM | – | – | – | – | – | – | – | – |
| CCOC(=O)C(Oc1ccc(OC)c2c1C(=O)CCC2)c1ccccc1 (configuration not stated) | > 100 µM | > 100 µM | – | – | > 100 µM | – | > 100 µM | > 100 µM | – | > 100 µM | > 100 µM | > 100 µM | – | – | – | – | – | > 100 µM | – | – |
| O=C(O)CCCCCNCc1cc2cc3c(cc2c2cc(OCc4ccccc4)ccc12)OCO3 | 3.3 µM | 3.57 µM | – | – | 3.62 µM | 3.48 µM | 13.2 µM | 24.2 µM | 1680 nM | 12.6 µM | 3.53 µM | 3.25 µM | 1.65 µM | 1.88 µM | 1.73 µM | 1.9 µM | – | – | 2.23 µM | 3.26 µM |
| C#Cc1c(C)c(/C=C/C(C)=C\C(=O)OC)n(C)c1C | – | > 100 µM | – | – | > 100 µM | – | > 100 µM | > 100 µM | – | > 100 µM | > 100 µM | > 100 µM | – | – | – | – | – | > 100 µM | – | – |
| CCN(CC)c1ccc(N=Nc2ccc(-c3nc4cccnc4s3)cc2)cc1 | > 100 µM | > 100 µM | – | – | – | – | > 100 µM | > 100 µM | – | > 100 µM | > 100 µM | > 100 µM | – | – | – | – | – | > 100 µM | – | – |
| Cc1ccccc1NC(=O)C(=O)C(C(=O)c1ccccc1F)C1OC(=O)c2ccccc21 (configuration not stated) | 86.5 µM | 95.1 µM | – | – | 27.4 µM | – | > 100 µM | 52.4 µM | – | 60.9 µM | > 100 µM | 41.6 µM | – | – | – | – | – | 28.2 µM | – | – |
